Here are results for four compounds from patent US20230097866A1, “BACTERIAL TOPOISOMERASE INHIBITORS DERIVED FROM ISOMANNIDE” (Ohio State Innovation Foundation, priority 2020, published 2023).

For data set [1], the system named is S. aureus ATCC 29213. Put plainly: MIC, CLSI broth microdilution, S. aureus ATCC 29213. The class given is cell-based. Particulars: Staphylococcus aureus.
Data set [2] deals with S. aureus ATCC 29213. The class given is cell-based, Staphylococcus aureus.
For data set [3], the system named is USA300 isolate of MRSA. Put plainly: MIC, CLSI broth microdilution, USA300 MRSA. The class given is cell-based. The settings on record: Staphylococcus aureus, read-out: MIC USA300.
The target of data set [4] is hERG (Homo sapiens, UniProt Q12809). Put plainly: hERG IC50, IonWorks Barracuda (Charles River). The source says: The design of these isomannide-detived NBTIs focused on enhanced polarity and modulation of basicity through the two electronegative oxygen atoms in the linker.
In general terms: hERG is a cardiac potassium channel; its block is linked to QT prolongation.

For data set [5], the system named is S. aureus strain isolated from a cystic fibrosis patient. Put plainly: MIC, CLSI broth microdilution, CF isolate. The class given is cell-based. The settings on record: Staphylococcus aureus, read-out: MIC CF isolate.
Data set [6] concerns the target S. aureus DNA gyrase (Staphylococcus aureus, UniProt P20831). Put plainly: Inhibition of DNA gyrase, biochemical assay (Inspiralis).
In data set [7] the test system is S. aureus ATCC 29213. Put plainly: microbe, parasite or virus in culture. The class given is cell-based. The settings on record: Staphylococcus aureus, ATCC29213, read-out: S. aureus ATCC 29213 MIC (n = 2). The protocol:
In order to determine the spontaneous mutation frequency of investigational agents (Table 4), the MIC was first determined using the agar dilution method as recommended by the Clinical and Laboratory Standards Institute.
Triplicate independent inocula of S. aureus ATCC 29213 were evaluated.

Data set [8] addresses TopoIV from S. aureus (Staphylococcus aureus, UniProt P0C1U9). Put plainly: biochemical. The class given is biochemical.
Data set [9] has as its system Mycobacterium abscessus (ATCC 19977). Put plainly: Ex vivo efficacy against M. abscessus. Format: cell-based. The settings on record: concentration for >90% inhibition. The protocol: (§1) Ex vivo efficacy was determined by inhibition of Mycobacterium avium complex (ATCC 700891 MAC 101), and Mycobacterium abscessus (ATCC 19977). Cytotoxicity tests were carried out against three human cell lines, THP-1 (ATCC TIB-202), HepG2 (ATCC HB-8065), and HeLa (ATCC CCL-2). IC50 values were calculated from dose response curves to determine cytotoxicity of test compounds.

The subject of data set [10] is M. abscessus 19977. Put plainly: MIC, microbroth dilution, M. abscessus. Particulars: Mycobacteroides abscessus. The class given is cell-based, Mycobacterium abscessus. As for the experimental part:
(§2) MICs were determined against the NTM strains […] avium ATCC 700891 MAC101 and M. abscessus 19977 using the microbroth dilution method. MIC was determined using optical density and a calorimetric growth indicator. For optical density ([…]), the MIC is considered the first concentration to inhibit growth when compared to an untreated growth control. A calorimetric growth indicator (i.e. Alamar Blue) was also added to confirm MIC value by observing color change from […], indicating no active growth.
On the technique in general: Broth dilution looks for growth in wells or tubes with falling amounts of substance.

The subject of data set [11] is M tuberculosis H37Rv in THP-1 macrophages. Put plainly: Ex vivo efficacy against M. tuberculosis in THP-1 macrophages. Format: cell-based, Mycobacterium tuberculosis.
Data set [12] deals with M. avium 700891. Put plainly: MIC, microbroth dilution, M. avium. Format: cell-based. Particulars: Mycobacterium avium. The protocol: as §2
In data set [13] the test system is Mycobacterium avium complex (ATCC 700891 MAC 101). Put plainly: Ex vivo efficacy against M. avium. Format: cell-based. The settings on record: concentration for >90% inhibition. As for the experimental part:
as §1

Data set [14] relates to M. tuberculosis H37Rv. Put plainly: MIC, microbroth dilution, M. tuberculosis H37Rv. The class given is cell-based. The settings on record: Mycobacterium tuberculosis.
Data set [15] has as its system Streptococcus pneumoniae LSI-4246. The settings on record: penicillin-resistant strain; previously published data for 27 and ciprofloxacin; cited from earlier work.
Data set [16] has as its system Enterobacter cloacae LSI-2943. The settings on record: previously published data for 27 and ciprofloxacin; cited from earlier work.
Data set [17] deals with Enterococcus faecalis ATCC 29212. The settings on record: previously published data for 27 and ciprofloxacin; cited from earlier work.
The test system of data set [18] is Streptococcus pneumoniae LSI-4234. Particulars: penicillin-susceptible strain; previously published data for 27 and ciprofloxacin; cited from earlier work.
Data set [19] relates to MRSADRL-3161. Particulars: previously published data for 27 and ciprofloxacin; cited from earlier work.
For data set [20], the system named is Klebsiella pneumoniae LSI-2999. Particulars: previously published data for 27 and ciprofloxacin; cited from earlier work.
The subject of data set [21] is Enterococcus faecium DRL-4193. The settings on record: vancomycin-susceptible strain; previously published data for 27 and ciprofloxacin; cited from earlier work.
For data set [22], the system named is Escherichia coli ATCC 25922. Particulars: previously published data for 27 and ciprofloxacin; cited from earlier work.
Data set [23] has as its system Streptococcus pyogenes LSI-1235. The settings on record: previously published data for 27 and ciprofloxacin; cited from earlier work.
For data set [24], the system named is Enterococcus faecium LSI-3340. The settings on record: vancomycin-resistant strain; previously published data for 27 and ciprofloxacin; cited from earlier work.
Data set [25] concerns Pseudomonas aeruginosa LSI-2946. The settings on record: previously published data for 27 and ciprofloxacin; cited from earlier work.
Data set [26] deals with S. aureus ATCC 29213. Particulars: previously published data for 27 and ciprofloxacin; cited from earlier work.
Data set [27] has as its system Acinetobacter baumannii LSI-2957. The settings on record: previously published data for 27 and ciprofloxacin; cited from earlier work.
The mark [28] stands for this setting: ATCC29213, CLSI broth microdilution, triplicate, read-out: MIC ATCC 29213.
[29] abbreviates: CLSI broth microdilution, ciprofloxacin-resistant MRSA.
Where [30] appears, read: S. aureus DNA gyrase, Inspiralis, Ltd., read-out: Gyrase IC50.
Setting [31] is: S. aureus TopoIV, read-out: TopoIV IC50.

Molecules are shown by their SMILES. pIC50: −log10 of the molar value. Values after ≈ are worked out from the molar mass of the structure shown. Read-outs that look alike come from different tables or passages of the source. Marks after values point to notes of the source that are not given here.

Sequence of S. aureus DNA gyrase (P0A0K8 whole entry): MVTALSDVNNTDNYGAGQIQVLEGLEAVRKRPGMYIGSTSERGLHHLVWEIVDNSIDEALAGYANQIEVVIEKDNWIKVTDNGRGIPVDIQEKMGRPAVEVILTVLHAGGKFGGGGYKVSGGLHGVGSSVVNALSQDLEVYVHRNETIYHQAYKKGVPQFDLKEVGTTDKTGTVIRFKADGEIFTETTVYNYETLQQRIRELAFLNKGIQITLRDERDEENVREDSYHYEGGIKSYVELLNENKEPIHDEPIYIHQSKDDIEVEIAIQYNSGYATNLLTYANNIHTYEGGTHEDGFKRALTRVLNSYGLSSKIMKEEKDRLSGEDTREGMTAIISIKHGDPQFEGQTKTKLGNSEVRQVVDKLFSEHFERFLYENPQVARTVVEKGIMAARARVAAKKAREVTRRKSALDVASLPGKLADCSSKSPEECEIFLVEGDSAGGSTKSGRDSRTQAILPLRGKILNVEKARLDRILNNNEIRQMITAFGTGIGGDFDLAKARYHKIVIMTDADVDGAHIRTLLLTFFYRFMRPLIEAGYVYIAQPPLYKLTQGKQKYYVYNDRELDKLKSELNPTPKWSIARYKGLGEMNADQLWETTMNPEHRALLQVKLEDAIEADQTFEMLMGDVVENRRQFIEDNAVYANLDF
Sequence of S. aureus DNA gyrase (P20831 whole entry): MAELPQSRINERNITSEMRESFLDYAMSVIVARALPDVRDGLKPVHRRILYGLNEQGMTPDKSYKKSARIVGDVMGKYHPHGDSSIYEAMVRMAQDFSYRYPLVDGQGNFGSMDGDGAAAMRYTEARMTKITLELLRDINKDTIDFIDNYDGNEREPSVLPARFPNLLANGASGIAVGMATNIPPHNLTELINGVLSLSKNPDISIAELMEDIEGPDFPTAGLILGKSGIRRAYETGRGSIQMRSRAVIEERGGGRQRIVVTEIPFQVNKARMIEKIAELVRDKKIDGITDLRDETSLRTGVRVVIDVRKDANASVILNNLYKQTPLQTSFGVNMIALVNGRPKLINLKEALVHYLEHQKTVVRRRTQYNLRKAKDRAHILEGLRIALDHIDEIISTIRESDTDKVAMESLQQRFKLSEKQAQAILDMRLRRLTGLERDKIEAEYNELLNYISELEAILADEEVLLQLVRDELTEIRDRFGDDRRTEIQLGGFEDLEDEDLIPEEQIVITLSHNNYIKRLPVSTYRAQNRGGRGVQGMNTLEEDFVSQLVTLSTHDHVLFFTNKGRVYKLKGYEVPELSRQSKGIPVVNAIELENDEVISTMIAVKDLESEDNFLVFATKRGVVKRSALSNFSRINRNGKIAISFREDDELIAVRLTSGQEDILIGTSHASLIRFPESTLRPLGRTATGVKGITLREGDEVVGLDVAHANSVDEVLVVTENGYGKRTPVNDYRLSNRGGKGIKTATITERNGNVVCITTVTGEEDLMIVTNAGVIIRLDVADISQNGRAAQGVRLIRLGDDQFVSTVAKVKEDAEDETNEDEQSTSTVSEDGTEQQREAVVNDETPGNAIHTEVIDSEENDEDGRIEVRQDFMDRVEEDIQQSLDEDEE
Sequence of TopoIV from S. aureus (P0C1S7 whole entry): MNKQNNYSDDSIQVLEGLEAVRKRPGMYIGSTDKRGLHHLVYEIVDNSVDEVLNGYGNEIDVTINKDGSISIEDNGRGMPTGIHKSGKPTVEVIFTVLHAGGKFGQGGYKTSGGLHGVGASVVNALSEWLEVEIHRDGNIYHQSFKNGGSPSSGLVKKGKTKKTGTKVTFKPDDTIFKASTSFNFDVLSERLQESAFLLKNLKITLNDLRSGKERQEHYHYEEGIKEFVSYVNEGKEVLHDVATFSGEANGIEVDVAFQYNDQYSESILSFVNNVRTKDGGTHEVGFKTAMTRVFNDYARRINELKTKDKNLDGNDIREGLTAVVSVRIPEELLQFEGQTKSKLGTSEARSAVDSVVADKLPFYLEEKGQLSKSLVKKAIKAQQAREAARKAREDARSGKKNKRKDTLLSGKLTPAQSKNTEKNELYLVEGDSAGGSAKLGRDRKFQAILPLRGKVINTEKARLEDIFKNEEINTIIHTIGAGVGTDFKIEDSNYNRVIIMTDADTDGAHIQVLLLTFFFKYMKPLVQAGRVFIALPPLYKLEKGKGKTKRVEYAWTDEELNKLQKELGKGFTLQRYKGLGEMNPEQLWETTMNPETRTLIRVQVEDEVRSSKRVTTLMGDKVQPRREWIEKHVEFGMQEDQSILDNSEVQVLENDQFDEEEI
Sequence of TopoIV from S. aureus (P0C1U9 whole entry): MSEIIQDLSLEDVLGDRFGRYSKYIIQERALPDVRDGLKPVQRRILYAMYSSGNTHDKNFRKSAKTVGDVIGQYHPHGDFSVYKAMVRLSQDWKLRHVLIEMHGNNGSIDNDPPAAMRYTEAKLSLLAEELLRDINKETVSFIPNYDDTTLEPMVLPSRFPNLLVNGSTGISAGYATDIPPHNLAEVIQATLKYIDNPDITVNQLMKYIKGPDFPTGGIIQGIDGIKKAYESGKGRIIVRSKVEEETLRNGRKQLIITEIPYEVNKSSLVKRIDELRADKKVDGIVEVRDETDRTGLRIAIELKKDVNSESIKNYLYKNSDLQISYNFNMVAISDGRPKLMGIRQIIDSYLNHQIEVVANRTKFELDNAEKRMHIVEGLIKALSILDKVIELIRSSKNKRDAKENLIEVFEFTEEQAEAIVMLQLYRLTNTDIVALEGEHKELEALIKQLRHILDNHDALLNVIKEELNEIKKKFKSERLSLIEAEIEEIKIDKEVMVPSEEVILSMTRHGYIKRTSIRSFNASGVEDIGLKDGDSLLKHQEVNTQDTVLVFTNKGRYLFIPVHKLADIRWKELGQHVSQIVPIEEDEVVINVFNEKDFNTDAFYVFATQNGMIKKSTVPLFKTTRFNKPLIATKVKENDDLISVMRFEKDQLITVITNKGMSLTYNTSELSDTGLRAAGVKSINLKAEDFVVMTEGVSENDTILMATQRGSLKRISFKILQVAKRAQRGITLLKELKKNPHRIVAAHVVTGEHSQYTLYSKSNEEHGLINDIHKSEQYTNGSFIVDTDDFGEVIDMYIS
Sequence of hERG (Q12809 whole entry): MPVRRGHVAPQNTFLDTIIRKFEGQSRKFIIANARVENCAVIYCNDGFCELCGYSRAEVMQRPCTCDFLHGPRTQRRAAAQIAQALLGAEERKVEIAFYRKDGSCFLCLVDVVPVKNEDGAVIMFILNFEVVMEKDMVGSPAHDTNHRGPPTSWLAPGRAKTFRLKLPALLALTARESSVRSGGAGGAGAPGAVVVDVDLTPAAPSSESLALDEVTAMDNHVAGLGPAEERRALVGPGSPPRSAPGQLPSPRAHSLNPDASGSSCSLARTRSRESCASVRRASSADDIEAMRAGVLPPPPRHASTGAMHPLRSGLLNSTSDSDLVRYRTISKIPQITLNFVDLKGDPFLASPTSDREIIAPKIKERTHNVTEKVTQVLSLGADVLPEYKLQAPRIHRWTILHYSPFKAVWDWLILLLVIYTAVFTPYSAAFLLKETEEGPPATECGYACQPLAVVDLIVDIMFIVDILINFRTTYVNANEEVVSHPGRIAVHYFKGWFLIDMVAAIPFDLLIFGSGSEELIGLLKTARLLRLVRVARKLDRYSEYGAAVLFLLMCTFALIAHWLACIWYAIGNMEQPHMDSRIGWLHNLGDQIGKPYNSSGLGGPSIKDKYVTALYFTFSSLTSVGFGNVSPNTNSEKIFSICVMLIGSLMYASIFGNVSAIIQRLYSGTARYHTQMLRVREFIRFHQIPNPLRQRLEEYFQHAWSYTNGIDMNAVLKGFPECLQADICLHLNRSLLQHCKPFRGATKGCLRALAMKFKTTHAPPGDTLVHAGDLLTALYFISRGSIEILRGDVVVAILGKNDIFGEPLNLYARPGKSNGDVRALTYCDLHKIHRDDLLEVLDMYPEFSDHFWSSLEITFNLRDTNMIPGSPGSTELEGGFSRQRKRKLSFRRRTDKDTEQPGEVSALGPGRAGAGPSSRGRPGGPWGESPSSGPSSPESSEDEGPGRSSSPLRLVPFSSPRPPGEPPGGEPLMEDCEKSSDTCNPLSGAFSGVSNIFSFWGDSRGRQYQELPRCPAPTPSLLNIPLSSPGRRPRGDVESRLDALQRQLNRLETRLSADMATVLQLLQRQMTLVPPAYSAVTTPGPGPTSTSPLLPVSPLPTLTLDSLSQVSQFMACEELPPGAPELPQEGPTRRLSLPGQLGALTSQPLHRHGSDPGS

A word on the pIC50: it is the negative decadic logarithm of the IC50, by convention in mol/L. As for `COc1ccc2ncc(F)c(CC[C@@]3(O)CO[C@@H]4[C@@H](NCc5ccc6c(c5)OCCO6)CO[C@@H]43)c2n1` [Compound 24, (3R,3aS,6S, 6aR)-6-(((2,3-dihydrobenzo[b][1,4]dioxin-6-yl)methyl)amino)-3-(2-(3-fluoro-6-methoxy-1,5-naphthyridin-4-yl)ethyl)hexahydrofuro[3,2-b]furan-3-ol], the MIC was 0.5 to 1 µg/mL (≈ 1 to 2.01 µM) in [1] (ATCC29213, read-out: MIC ATCC 29213); 1 µg/mL (≈ 2.01 µM) in data set [3]; 1 µg/mL (≈ 2.01 µM) in data set [5]; 0.5 µg/mL (≈ 1 µM) in data set [7]. Moreover, the “Spontaneous mutation frequency (8X MIC)” value in [2] was 1.35 × 10^−9 (mean, n = 2). Also, in [2], the “Spontaneous mutation frequency (16X MIC)” value was 4.49 × 10^−10 (mean, n = 2). Besides, in data set [4] (24 versus cyclohexane-linked 31 and 32), the “hERG IC50 higher than 31 and 32” value was greater than 8 fold. For the same compound, the pIC50 is 6.70 in [6] and 5.59 in data set [8]. Besides, in [8], the “TopoIV/gyrase IC50 ratio” value is recorded as 13. Moreover, the “improvement of TopoIV/gyrase IC50 ratio as compared to dioxane 27” value in data set [8] is listed as roughly 2 fold.

Regarding `COc1ccc2ncc(F)c(CC[C@@]3(O)CO[C@@H]4[C@@H](NCc5ccc(C)cc5)CO[C@@H]43)c2n1` [Compound 25, (3R,3aS,6S,6aR)-3-(2-(3-fluora-6-methoxy-1,5-naphthyridin-4-yl)ethyl)-6-((4-methyllbenzyl)amino)hexahydrofuro[3,2-b]furan-3-ol], the MIC in [1] (setting [28]) was 1 to 2 µg/mL (≈ 2.21 to 4.41 µM); in data set [10], 8 µg/mL (≈ 17.6 µM); in [3] (setting [29]), 2 µg/mL (≈ 4.41 µM); in data set [12] it was 16 µg/mL (≈ 35.3 µM); in data set [5] (CLSI broth microdilution), 2 µg/mL (≈ 4.41 µM); in data set [14], 8 µg/mL (≈ 17.6 µM). Also, in data set [9], the “Ex vivo efficacy M. abscessus (>90% inhibition)” value is greater than 128 µg/mL. In addition, the “M. tuberculosis ex vivo efficacy (% inhibition at MIC)” value in [11] was found to be 80%. The pIC50 in data set [4] (read-out: hERG IC50, IonWorks Barracuda) was 5.38; in [6] (setting [30]) it was 6.74; in data set [8] (setting [31]), 5.12. For the same compound, the “Ex vivo efficacy M. avium (>90% inhibition)” value in [13] is greater than 128 µg/mL. In addition, the “TopoIV/gyrase IC50 ratio” value in data set [8] (S. aureus enzymes) turned out to be 42.

Consider `COc1ccc2ncc(F)c(CC[C@@]3(O)CO[C@@H]4[C@@H](NCc5ccc(Cl)c(Cl)c5)CO[C@@H]43)c2n1` [Compound 26, (3R,3aS,6S,6aR)-6-((3,4-dichlorobenzyl)amino)-3-(2-(3-fluoro-6-methoxy-1,5-napkthyridin-4-yl)ethyl)hexahydrofuro[3,2-b]-furan-3-ol], for which the MIC was 0.25 to 0.5 µg/mL (≈ 0.492 to 0.984 µM) in data set [1] (setting [28]); 8 µg/mL (≈ 15.7 µM) in [10]; 0.5 µg/mL (≈ 0.984 µM) in [3] (setting [29]); 1 µg/mL (≈ 1.97 µM) in data set [12]; 0.5 µg/mL (≈ 0.984 µM) in data set [5] (CLSI broth microdilution); 2 µg/mL (≈ 3.93 µM) in data set [14]. The “Ex vivo efficacy M. abscessus (>90% inhibition)” value in [9] amounted to 32 µg/mL. Further, in [11], the “M. tuberculosis ex vivo efficacy (% inhibition at MIC)” value was 90%. Further, the pIC50 was 6.70 in data set [6] (setting [30]) and 5.54 in data set [8] (setting [31]). In addition, the “Ex vivo efficacy M. avium (>90% inhibition)” value in [13] is greater than 128 µg/mL.

Turning to `COc1ccc2ncc(F)c(CCC3OCC(NCc4ccc5c(c4)OCCO5)CO3)c2n1` (stereo not shown) [Compound 27], the “MIC Streptococcus pneumoniae LSI-4246” value in [15] was no more than 0.06 µg/mL. In addition, the “MIC Enterobacter cloacae LSI-2943” value in [16] is 32 µg/mL (≈ 70.3 µM). The “MIC Enterococcus faecalis ATCC 29212” value in data set [17] was 0.5 µg/mL (≈ 1.1 µM). In data set [18], the “MIC Streptococcus pneumoniae LSI-4234” value is 0.25 µg/mL (≈ 0.549 µM). The “MIC MRSADRL-3161” value in [19] was no more than 0.06 µg/mL. Also, the figures for the MIC in data set [1] (setting [28]), in data set [3] (setting [29]) and in data set [5] (CLSI broth microdilution) were no more than 0.25 µg/mL, 0.125 to 0.25 µg/mL (≈ 0.274 to 0.549 µM) and 0.25 µg/mL (≈ 0.549 µM), respectively. Moreover, in data set [20], the “MIC Klebsiella pneumoniae LSI-2999” value is greater than 64 µg/mL. Also, the “MIC Enterococcus faecium DRL-4193” value in data set [21] is 0.12^f μg/mL. The “MIC Escherichia coli ATCC 25922 (n = 2)” value in data set [22] is 16 µg/mL (≈ 35.1 µM). Moreover, the pIC50 in [4] is 5.10; in data set [6] (setting [30]), 7.52; in [8] (setting [31]), 6.00. In addition, the “MIC Streptococcus pyogenes LSI-1235” value in data set [23] was no more than 0.06 µg/mL. Further, the “MIC Enterococcus faecium LSI-3340” value in data set [24] was 0.12 µg/mL (≈ 0.263 µM). Further, the “MIC Pseudomonas aeruginosa LSI-2946” value in data set [25] is 4 µg/mL (≈ 8.78 µM). For the same compound, the “MIC S. aureus ATCC 29213 (n = 3)” value in [26] is ≤0.06^b μg/mL. The “MIC Acinetobacter baumannii LSI-2957” value in data set [27] was 2 µg/mL (≈ 4.39 µM). In addition, the “TopoIV/gyrase IC50 ratio” value in data set [8] (S. aureus enzymes) stood at 33.
